These results are taken from patent US20230023559A1, “ARYLMETHYLENE HETEROCYCLIC COMPOUNDS AS KV1.3 POTASSIUM SHAKER CHANNEL BLOCKERS” (D. E. Shaw Research, LLC, priority 2019, published 2023).

The term IC50 denotes the concentration that inhibits the measured activity by half.

The structures appear in SMILES notation.

The target in one assay is T1, Kv1.3 potassium channel (Homo sapiens, UniProt P22001).
T1 construct: expressed in transfected cells
As to the kind of experiment: Kv1.3 potassium channel blocker activity, automated whole-cell patch clamp (Patchliner). Conditions: CHO-K1 cells stably expressing Kv1.3; whole cell current inhibition; read-out: Kv1.3_IC50. The class given is cell-based. In a few lines:
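Peak-current block was recorded on stable Kv1.3 CHO-K1 cells by automated patch clamp, stepping from a −90 mV holding potential to +40 mV for 100 ms at 0.1 Hz with 10 s breaks between trains. Online P/4 leak subtraction, 10 kHz sampling; compound exposure under 10 s per train.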

A further assay addresses hERG channel (Homo sapiens, UniProt Q12809). As to the kind of experiment: hERG electrophysiology, automated whole-cell patch clamp (Patchliner). Background: hERG is a cardiac potassium channel; its block is linked to QT prolongation.

Sequence of hERG channel (Q12809 whole entry): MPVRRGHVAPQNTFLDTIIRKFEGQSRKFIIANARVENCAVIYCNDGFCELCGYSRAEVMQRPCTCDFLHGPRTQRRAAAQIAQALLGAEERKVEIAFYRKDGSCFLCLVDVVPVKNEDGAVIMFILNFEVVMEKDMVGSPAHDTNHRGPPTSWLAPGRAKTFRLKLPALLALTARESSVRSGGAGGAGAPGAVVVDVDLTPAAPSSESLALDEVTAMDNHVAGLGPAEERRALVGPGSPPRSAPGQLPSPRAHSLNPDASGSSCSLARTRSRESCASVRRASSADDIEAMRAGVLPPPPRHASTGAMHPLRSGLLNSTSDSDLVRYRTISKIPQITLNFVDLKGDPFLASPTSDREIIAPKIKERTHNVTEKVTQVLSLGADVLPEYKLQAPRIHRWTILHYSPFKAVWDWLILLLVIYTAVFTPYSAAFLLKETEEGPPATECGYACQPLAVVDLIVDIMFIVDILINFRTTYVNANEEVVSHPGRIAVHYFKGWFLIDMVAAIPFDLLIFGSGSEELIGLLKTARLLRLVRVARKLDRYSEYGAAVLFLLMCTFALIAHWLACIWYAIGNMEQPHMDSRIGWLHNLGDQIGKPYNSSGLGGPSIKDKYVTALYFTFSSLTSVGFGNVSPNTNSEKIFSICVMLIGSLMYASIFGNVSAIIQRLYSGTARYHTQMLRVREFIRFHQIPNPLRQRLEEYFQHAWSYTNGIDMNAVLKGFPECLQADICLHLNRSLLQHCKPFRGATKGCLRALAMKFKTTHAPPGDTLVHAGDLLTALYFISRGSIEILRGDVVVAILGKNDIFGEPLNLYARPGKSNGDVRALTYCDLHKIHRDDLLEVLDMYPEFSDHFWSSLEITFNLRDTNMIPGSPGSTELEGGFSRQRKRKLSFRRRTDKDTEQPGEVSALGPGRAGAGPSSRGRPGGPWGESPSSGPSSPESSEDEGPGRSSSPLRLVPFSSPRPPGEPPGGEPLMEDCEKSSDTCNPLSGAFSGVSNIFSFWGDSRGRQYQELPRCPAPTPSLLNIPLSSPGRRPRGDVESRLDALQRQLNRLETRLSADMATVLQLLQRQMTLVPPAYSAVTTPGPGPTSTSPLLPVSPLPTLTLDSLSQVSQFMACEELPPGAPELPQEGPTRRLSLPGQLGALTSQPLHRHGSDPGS
T1 sequence (P22001 whole entry): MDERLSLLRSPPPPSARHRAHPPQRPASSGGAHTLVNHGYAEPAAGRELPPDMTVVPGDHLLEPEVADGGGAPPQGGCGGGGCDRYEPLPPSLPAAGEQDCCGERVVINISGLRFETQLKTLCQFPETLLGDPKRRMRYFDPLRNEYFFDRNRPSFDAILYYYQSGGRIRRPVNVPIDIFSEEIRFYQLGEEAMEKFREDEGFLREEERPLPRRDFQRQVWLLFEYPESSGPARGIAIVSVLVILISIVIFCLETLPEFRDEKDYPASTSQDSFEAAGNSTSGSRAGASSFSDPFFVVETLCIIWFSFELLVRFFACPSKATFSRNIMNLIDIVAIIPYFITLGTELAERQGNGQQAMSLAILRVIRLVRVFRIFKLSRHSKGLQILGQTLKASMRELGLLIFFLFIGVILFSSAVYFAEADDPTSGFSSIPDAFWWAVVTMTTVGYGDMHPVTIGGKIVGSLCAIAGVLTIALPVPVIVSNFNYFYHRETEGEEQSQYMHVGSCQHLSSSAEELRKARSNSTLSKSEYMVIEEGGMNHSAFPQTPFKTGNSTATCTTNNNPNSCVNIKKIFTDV

Take `N[C@@H](c1cc(Cl)c(Cl)cc1O)C1CCN(C(=O)[C@H]2CC[C@H](O)C2)CC1` (single isomer, unassigned; isomer 1) [Compound 177]: the values for the IC50 on Kv1.3 potassium channel and against hERG channel were under 10 µM and under 30 µM, respectively.
`N[C@@H](c1cc(Cl)c(Cl)cc1O)C1CCN(C(=O)[C@@H](O)CO)CC1` (single isomer, unassigned) [Compound 120]: the IC50 is under 0.5 µM at Kv1.3 potassium channel and over 30 µM on hERG channel.
On the same counts, the results for `N[C@@H](c1cc(Cl)c(Cl)cc1O)C1CCN(C(=O)N2CCNCC2)CC1` [Compound 141, 2-[(R)-amino[1-(piperazine-1-carbonyl)piperidin-4-yl]methyl]-4,5-dichlorophenol Trifluoroacetic Acid] are under 0.5 µM and over 30 µM.
As for `CC(C)C(N)C(=O)N1CCC([C@@H](N)c2cc(Cl)c(Cl)cc2O)CC1` (stereo partly drawn) [Compound 156, 2-amino-1-[4-[(R)-amino(4,5-dichloro-2-hydroxyphenyl)methyl]piperidin-1-yl]-3-methylbutan-1-one trifluoroacetic acid], the IC50 at Kv1.3 potassium channel was under 10 µM; on hERG channel, over 30 µM.
On the same counts, the results for `N[C@@H](c1cc(Cl)c(Cl)cc1O)C1CCN(C(=O)[C@H]2COCCO2)CC1` [Compound 169, 2-[(R)-amino([1-[(2R)-1,4-dioxane-2-carbonyl]piperidin-4-yl])methyl]-4,5-dichlorophenol trifluoroacetic acid] are under 10 µM and under 30 µM.
Regarding `C[C@@]1(C(=O)N2CCC([C@@H](N)c3cc(Cl)c(Cl)cc3O)CC2)CCCN1` [Compound 98, (4-((R)-amino(4,5-dichloro-2-hydroxyphenyl)methyl)piperidin-1-yl)((S)-2-methylpyrrolidin-2-yl)methanone], the IC50 on Kv1.3 potassium channel is under 0.5 µM; on hERG channel, over 30 µM.
With `COc1ccc(C(=O)N2CCC([C@@H](N)c3cc(Cl)c(C)cc3O)CC2)cn1` [Compound 243, 2-[(R)-amino[1-(6-methoxypyridine-3-carbonyl)piperidin-4-yl]methyl]-4-chloro-5-methylphenol trifluoroacetic acid], the IC50 at Kv1.3 potassium channel is under 0.5 µM; against hERG channel, under 30 µM.
With `CCNC(c1cc(Cl)c(Cl)cc1O)C1CCN(C(=O)C(O)CO)CC1` (centres unmarked) [Compound 182, 1-[4-[(4,5-dichloro-2-hydroxyphenyl)(ethylamino)methyl]piperidin-1-yl]-2,3-dihydroxypropan-1-one Trifluoroacetic Acid], on Kv1.3 potassium channel, the IC50 is under 10 µM.
As to `Cc1cc(O)c([C@H](N)C2CCN(C(=O)c3ccc4c(c3)NC(=O)CO4)CC2)cc1Cl` [Compound 269, 6-[4-[(R)-amino (5-chloro-2-hydroxy-4-methylphenyl)methyl]piperidine-1-carbonyl]-2,4-dihydro-1,4-benzoxazin-3-one], the IC50 on Kv1.3 potassium channel is under 10 µM.
Still for that read-out and setting: in the case of `CCNC(c1cc(Cl)c(Cl)cc1O)C1CCN(C(=O)[C@H](O)CO)CC1` (stereo partly drawn) [Compound 202, (2R)-1-[4-[(4,5-dichloro-2-hydroxyphenyl)(ethylamino)methyl]piperidin-1-yl]-2,3-dihydroxypropan-1-one Trifluoroacetic Acid] it was under 30 µM.
Still for that read-out and setting: in the case of `O=C([C@H]1CCNC1)N1CCCC(C(O)c2cc(Cl)c(Cl)cc2O)CC1` (stereo partly drawn) [Compound 128, 4,5-dichloro-2-[hydroxy([1-[(3S)-pyrrolidine-3-carbonyl]azepan-4-yl])methyl]phenol] it was under 10 µM; in that of `NC(c1cc(Cl)c(Cl)cc1O)C1CCN(Cc2ccccc2)CC1` (centres unmarked) [Compound 41, 2-(amino(1-benzylpiperidin-4-yl)methyl)-4,5-dichlorophenol Trifluoroacetic Acid], under 10 µM.
On the same count and under the same terms, the figure for `N[C@H](c1cc(Cl)c(Cl)cc1O)C1CCN(C(=O)[C@H]2CCNC2)CC1` [Compound 79, (4-((S)-amino(4,5-dichloro-2-hydroxyphenyl)methyl)piperidin-1-yl)((S)-pyrrolidin-3-yl)methanone] is under 10 µM; for `CC(=O)N1CCC(C(CN)c2cc(Cl)c(Cl)cc2O)CC1` (centres unmarked) [Compound 28, 1-[4-[2-amino-1-(4,5-dichloro-2-hydroxyphenyl)ethyl]piperidin-1-yl]ethan-1-one] it is under 30 µM; for `CO[C@H](CO)C(=O)N1CCC([C@@H](N)c2cc(Cl)c(C)cc2O)CC1` [Compound 250, (2R)-1-[4-[(R)-amino(5-chloro-2-hydroxy-4-methylphenyl)methyl]piperidin-1-yl]-3-hydroxy-2-methoxypropan-1-one trifluoroacetic acid] it is under 0.5 µM.
For the molecule `CN1CCC([C@H](O)c2cc(Cl)c(Cl)cc2O)CC1` (single isomer, unassigned) [Compound 319], the IC50 at Kv1.3 potassium channel was under 10 µM.
Take `CN(C)C(c1cc(Cl)c(Cl)cc1O)C1CCN(C(=O)[C@H](O)CO)CC1` (stereo partly drawn) [Compound 193, (2R)-1-[4-[(4,5-dichloro-2-hydroxyphenyl)(dimethylamino)methyl]piperidin-1-yl]-2,3-dihydroxypropan-1-one Trifluoroacetic Acid]: at Kv1.3 potassium channel, the IC50 is under 30 µM.
Same read-out and setting: the figure for `CN1CC(C(=O)N2CCC([C@@H](N)c3cc(Cl)c(Cl)cc3O)CC2)OCC1=O` (stereo partly drawn) [Compound 268, 6-[4-[(R)-amino(4,5-dichloro-2-hydroxyphenyl)methyl]piperidine-1-carbonyl]-4-methylmorpholin-3-one trifluoroacetic acid] is under 0.5 µM; for `CC1(C(N)c2cc(Cl)c(Cl)cc2O)CCN(C(=O)[C@H](O)CO)CC1` (stereo partly drawn) [Compound 309, (2R)-1-[4-[amino(4,5-dichloro-2-hydroxyphenyl)methyl]-4-methylpiperidin-1-yl]-2,3-dihydroxypropan-1-one Trifluoroacetic Acid] it is under 10 µM.
For `Cc1cc(O)c([C@H](N)C2CCN(C(=O)c3c[nH]c(=O)c4ccccc34)CC2)cc1Cl` [Compound 325, 4-[4-[(R)-amino (5-chloro-2-hydroxy-4-methylphenyl)methyl]piperidine-1-carbonyl]-2H-isoquinolin-1-one trifluoroacetic acid], the IC50 at Kv1.3 potassium channel was under 0.5 µM.
Same read-out and setting: in the case of `N[C@H](c1cc(Cl)c(Cl)cc1O)[C@H]1CCN(C(=O)[C@H](O)CO)C1` (single isomer, unassigned; isomer 1) [Compound 308] it was under 10 µM; in that of `NC(=O)C(c1cc(Cl)c(Cl)cc1O)C1CCNCC1` (centres unmarked) [Compound 18, 2-(4,5-dichloro-2-hydroxyphenyl)-2-(piperidin-4-yl)acetamide], under 10 µM.
As to `CC(C)(N)C(=O)N1CCC([C@@H](N)c2cc(Cl)c(Cl)cc2O)CC1` [Compound 90, (R)-2-amino-1-(4-(amino(4,5-dichloro-2-hydroxyphenyl)methyl)piperidin-1-yl)-2-methylpropan-1-one trifluoroacetic acid], the IC50 at Kv1.3 potassium channel was under 0.5 µM.
The same measure, in the same setting: in the case of `N[C@@H](c1cc(Cl)c(Cl)cc1O)C1C2CCC1CN(C(=O)[C@H](O)CO)C2` (stereo partly drawn) [Compound 313, (2R)-1-[8-[(R)-amino(4,5-dichloro-2-hydroxyphenyl)methyl]-3-azabicyclo[3.2.1]octan-3-yl]-2,3-dihydroxypropan-1-one Trifluoroacetic Acid] it was under 10 µM; in that of `COCCN1CCC(C(N)c2cc(Cl)c(Cl)cc2O)CC1` (centres unmarked) [Compound 64, 2-(amino(1-(2-methoxyethyl)piperidin-4-yl)methyl)-4,5-dichlorophenol], under 10 µM.
Same read-out and setting: in the case of `Cc1cc(CN2CCC(C(N)c3cc(Cl)c(Cl)cc3O)CC2)no1` (centres unmarked) [Compound 58, 2-[amino([1-[(5-methyl-1,2-oxazol-3-yl)methyl]piperidin-4-yl])methyl]-4,5-dichlorophenol Trifluoroacetic Acid] it was under 10 µM; in that of `N[C@@H](c1cc(Cl)c(Cl)cc1O)C1CCN(C(=O)C2CNC(=O)O2)CC1` (stereo partly drawn) [Compound 261, 5-[4-[(R)-amino(4,5-dichloro-2-hydroxyphenyl)methyl]piperidine-1-carbonyl]-1,3-oxazolidin-2-one trifluoroacetic acid], under 0.5 µM.
On the same count and under the same terms, in the case of `N[C@H](c1cc(Cl)c(Cl)cc1O)[C@@H]1CCCN(C(=O)[C@H](O)CO)C1` [Compound 330, (2R)-1-[(3R)-3-[(S)-amino(4,5-dichloro-2-hydroxyphenyl)methyl]piperidin-1-yl]-2,3-dihydroxypropan-1-one Trifluoroacetic Acid] it was over 10 µM; in that of `Cc1cc(O)c([C@H](N)C2CCN(C(=O)c3cc(Cl)c(=O)n(C)c3)CC2)cc1Cl` [Compound 270, 5-[4-[(R)-amino (5-chloro-2-hydroxy-4-methylphenyl)methyl]piperidine-1-carbonyl]-3-chloro-1-methyl-pyridin-2-one trifluoroacetic acid], under 0.5 µM; in that of `CC(C)C[C@@H](N)C(=O)N1CCC([C@@H](N)c2cc(Cl)c(Cl)cc2O)CC1` [Compound 94, (R)-2-amino-1-(4-((R)-amino(4,5-dichloro-2-hydroxyphenyl)methyl)piperidin-1-yl)-4-methylpentan-1-one trifluoroacetic acid], under 0.5 µM.
For `N[C@@H](c1cc(Cl)c(Cl)cc1O)C1CCN(C(=O)c2c[nH]c(=O)c(Cl)c2)CC1` [Compound 255, 5-[4-[(R)-amino(4,5-dichloro-2-hydroxyphenyl)methyl]piperidine-1-carbonyl]-3-chloro-1H-pyridin-2-one], at Kv1.3 potassium channel, the concentration for half-maximal inhibition (IC50) was under 0.5 µM.
Turning to `O=C([C@H]1CCNC1)N1CCC[C@H]([C@H](O)c2c(O)ccc(Cl)c2Cl)CC1` (single isomer, unassigned; isomer 2) [Compound 129], the IC50 at Kv1.3 potassium channel is under 10 µM.
For the molecule `O=C([C@H]1CCNC1)N1CCC[C@@H]([C@@H](O)c2c(O)ccc(Cl)c2Cl)CC1` (single isomer, unassigned; isomer 3) [Compound 323], the IC50 at Kv1.3 potassium channel is under 10 µM.
In the case of `N[C@@H](c1cc(Cl)c(Cl)cc1O)C1CCN(C(=O)[C@@H]2CNC(=O)CO2)CC1` [Compound 229, (6S)-6-[4-[(R)-amino(4,5-dichloro-2-hydroxyphenyl)methyl]piperidine-1-carbonyl]morpholin-3-one Trifluoroacetic Acid], the IC50 on Kv1.3 potassium channel was under 10 µM.
